Test results: patent US6545002B1 (University of Virginia Patent Foundation, priority 1999, dated 2003)
Where two headings read alike, the source gives them in different places.

Legend:
rat A1 receptors (rA1) = molecular target: T1, rat A1 receptors (rA1) (Rattus norvegicus, UniProt P25099); assay: Displacement of [3H]R-PIA binding in rat brain (cerebral cortical) membranes
T1 construct: to A1 receptors from rat cerebral cortical membranes; from tissue; host or cells: rat cerebral cortical (brain) membranes
T1 sequence (P25099 1-326): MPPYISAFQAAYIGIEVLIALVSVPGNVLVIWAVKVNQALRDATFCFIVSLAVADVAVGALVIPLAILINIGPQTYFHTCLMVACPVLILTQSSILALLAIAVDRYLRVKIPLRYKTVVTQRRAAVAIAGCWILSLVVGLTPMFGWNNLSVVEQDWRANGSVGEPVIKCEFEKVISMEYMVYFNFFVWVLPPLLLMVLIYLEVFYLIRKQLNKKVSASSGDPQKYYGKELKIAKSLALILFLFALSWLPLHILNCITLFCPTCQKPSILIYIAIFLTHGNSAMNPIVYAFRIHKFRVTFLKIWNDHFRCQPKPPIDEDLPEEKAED
Protocol: (§1) Bruns, R. F. et al., Naunyn-Schmiedeberg's Arch. […] Binding of [^3H]R-N^6-phenylisopropyladenosine. Schwabe, U. et al., Naunyn-Schmiedeberg's Arch. […] (Dupont NEN, Boston, Mass.) to A2A receptors from rat striatal membranes was performed as described. […] All non-radioactive compounds were initially dissolved in DMSO, and diluted with buffer to the final concentration, where the amount of DMSO never exceeded 2%. Incubations were terminated by rapid filtration over Whatman GF/B filters, using a Brandell cell harvester (Brandell, Gaithersburg, Md.). The tubes were rinsed three times with 3 mL buffer each.
(§2) At least six different concentrations of competitor, spanning 3 orders of magnitude adjusted appropriately for the IC50 of each compound, were used. IC50 values, calculated with the nonlinear regression method implemented in (Graph-Pad Prism, San Diego, Calif.), were converted to apparent Ki values as described. Linden, J., J. Cycl. Nucl.

rat A2A receptors (rA2A) = molecular target: T2, rat A2A receptors (rA2A) (Rattus norvegicus, UniProt P30543); assay: Displacement of [3H]CGS 21680 binding in rat striatal membranes
T2 construct: to A2A receptors from rat striatal membranes was performed as described; from tissue; host or cells: rat striatal membranes
Protocol: as §1, §2

[1] = molecular target: T3, human A2B receptors (hA2B) (Homo sapiens, UniProt P29275); assay: Radioligand binding ([125I]ABOPX / [3H]ZM241385) at human A2B receptors expressed in HEK-293 cells; conditions: for rA1/hA2B: Ki ratio
T3 construct: expressed in transfected cells; host or cells: HEK-293 (HEK-A2B, G418-selected)
T3 sequence (P29275 1-332): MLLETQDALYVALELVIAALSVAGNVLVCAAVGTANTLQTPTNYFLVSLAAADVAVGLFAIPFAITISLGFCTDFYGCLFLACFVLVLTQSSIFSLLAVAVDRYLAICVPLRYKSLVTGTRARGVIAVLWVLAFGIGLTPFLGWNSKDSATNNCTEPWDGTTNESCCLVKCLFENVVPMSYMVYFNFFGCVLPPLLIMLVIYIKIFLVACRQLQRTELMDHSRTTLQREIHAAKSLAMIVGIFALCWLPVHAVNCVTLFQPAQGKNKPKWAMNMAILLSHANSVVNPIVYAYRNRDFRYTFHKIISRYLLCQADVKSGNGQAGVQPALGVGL

human A3 receptors (hA3) = molecular target: T4, human A3 receptors (hA3) (Homo sapiens, UniProt P0DMS8); assay: Displacement of [125I]ABA binding at human A3 receptors expressed in HEK-293 cells
T4 construct: expressed in transfected cells; host or cells: HEK-293
T4 sequence (P0DMS8 1-318): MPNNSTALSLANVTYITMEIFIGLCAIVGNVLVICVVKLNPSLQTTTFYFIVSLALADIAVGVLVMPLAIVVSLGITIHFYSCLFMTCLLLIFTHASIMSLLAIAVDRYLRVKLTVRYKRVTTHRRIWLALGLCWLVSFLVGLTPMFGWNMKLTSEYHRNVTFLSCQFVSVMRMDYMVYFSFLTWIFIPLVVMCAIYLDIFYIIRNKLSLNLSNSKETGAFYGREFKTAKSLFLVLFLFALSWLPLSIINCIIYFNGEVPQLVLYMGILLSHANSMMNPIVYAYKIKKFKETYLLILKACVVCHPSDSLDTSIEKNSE

[2] = molecular target: T5, recombinant human A1 receptors (hA1) (Homo sapiens, UniProt P30542); assay: Radioligand binding ([3H]CPX) at recombinant human A1 receptors in HEK-293 cells
T5 sequence (P30542 1-326): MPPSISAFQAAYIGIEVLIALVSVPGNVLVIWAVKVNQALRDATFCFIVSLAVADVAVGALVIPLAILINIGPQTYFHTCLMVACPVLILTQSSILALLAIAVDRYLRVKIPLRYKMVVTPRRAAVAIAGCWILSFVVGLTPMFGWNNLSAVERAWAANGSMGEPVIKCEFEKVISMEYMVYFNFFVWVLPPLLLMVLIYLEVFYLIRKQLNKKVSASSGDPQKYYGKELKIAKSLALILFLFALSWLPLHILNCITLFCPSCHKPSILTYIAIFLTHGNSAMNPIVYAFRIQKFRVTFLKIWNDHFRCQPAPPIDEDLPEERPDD

[3] = molecular target: recombinant human A2A receptors (hA2A) (Homo sapiens, UniProt P29274); assay: Radioligand binding (125I-ZM241385) at recombinant human A2A receptors in HEK-293 cells
[4] = Table 2, read-out: rA1 Ki or IC50
[5] = Table 2, read-out: rA2A Ki or IC50
[6] = read-out: Ki value at human A2B receptors
[7] = Table 2, read-out: hA3 Ki or IC50
[8] = read-out: hA1 Ki or IC50, Table 2
[9] = read-out: hA2A Ki or IC50, Table 2
[10] = Table 4, footnote a: [125I]-ABOPX, read-out: hA2B Ki (value marked ^a) (converted)
[11] = Table 4, unmarked value, first of two binding assays, read-out: hA2B Ki
[12] = Table 4, footnote a: [125I]ABA, read-out: hA3 Ki (value marked ^a)
[13] = read-out: hA1 Ki, values marked (h)^a, Table 4, vs [3H]CPX, HEK-293
[14] = read-out: hA2A Ki, values marked (h)^a, Table 4, vs [125I]ZM241385, HEK-293

T2 sequence (P30543 whole entry): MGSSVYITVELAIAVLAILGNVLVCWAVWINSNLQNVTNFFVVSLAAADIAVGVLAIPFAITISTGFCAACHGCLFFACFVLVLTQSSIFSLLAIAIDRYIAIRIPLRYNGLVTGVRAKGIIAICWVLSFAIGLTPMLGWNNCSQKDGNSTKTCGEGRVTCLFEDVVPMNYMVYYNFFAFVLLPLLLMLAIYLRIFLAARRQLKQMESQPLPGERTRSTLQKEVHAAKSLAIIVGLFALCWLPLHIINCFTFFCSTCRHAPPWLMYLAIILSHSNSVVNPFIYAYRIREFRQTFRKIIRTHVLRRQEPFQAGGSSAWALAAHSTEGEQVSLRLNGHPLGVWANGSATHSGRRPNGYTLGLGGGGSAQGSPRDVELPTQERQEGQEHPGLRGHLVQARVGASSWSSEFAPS
Sequence of recombinant human A2A receptors (hA2A) (P29274 whole entry): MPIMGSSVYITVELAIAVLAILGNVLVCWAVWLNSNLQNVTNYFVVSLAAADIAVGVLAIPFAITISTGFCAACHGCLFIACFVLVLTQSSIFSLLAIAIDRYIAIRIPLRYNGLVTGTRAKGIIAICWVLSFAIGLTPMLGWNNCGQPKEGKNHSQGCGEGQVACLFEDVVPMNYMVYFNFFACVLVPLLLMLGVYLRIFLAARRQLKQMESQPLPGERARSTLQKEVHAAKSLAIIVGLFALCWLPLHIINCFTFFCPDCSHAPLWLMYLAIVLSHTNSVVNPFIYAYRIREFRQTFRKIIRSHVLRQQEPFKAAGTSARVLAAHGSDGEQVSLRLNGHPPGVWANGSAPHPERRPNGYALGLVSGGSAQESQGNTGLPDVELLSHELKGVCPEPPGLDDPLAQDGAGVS

For `CCCn1c(=O)c2[nH]c(-c3ccc(OCC(=O)Nc4ccc([N+](=O)[O-])cc4)cc3)nc2n(CCC)c1=O` [Compound 28, 8-[4-[((4-Nitro)phenylcarbamoylmethyl)oxy]phenyl]-1,3-di-(n-propyl)xanthine], the Ki (rat A1 receptors (rA1); [4]) was 13.1 ± 3.9 nM, the Ki (rat A2A receptors (rA2A); [5]) was 1180 nM and the “selectivity for human A2B versus human A1 receptors” value [1] was 35 fold. It also gave a Ki [1, 6] of 1.52 nM, a Ki (human A3 receptors (hA3); [7]) of 138 ± 17.1 nM and a melting point of 307 °C. For the same compound, the Ki [2, 8] was 57 ± 3.1 nM and the Ki [3, 9] was 70 ± 10.7 nM.

Compound `CCCn1c(=O)c2[nH]c(-c3ccc(OCC(=O)Nc4ccc(C(F)(F)F)cc4)cc3)nc2n(CCC)c1=O` [Compound 29, 8-[4-[((4-Trifluoromethyl)phenylcarbamoylmethyl)oxy]phenyl]-1,3-di-(n-propyl)xanthine] has a Ki (rat A1 receptors (rA1); [4]) of 44.6 ± 6.5 nM, a Ki (rat A2A receptors (rA2A); [5]) of 917 ± 258 nM and a Ki [1, 6] of 2.14 nM. For the same compound, the Ki (human A3 receptors (hA3); [7]) was 213 ± 94 nM, the melting point was greater than 310 °C and the Ki [2, 8] was 61.2 ± 8.2 nM. For the same compound, the Ki [3, 9] was 238 ± 28 nM.

With `CCCn1c(=O)c2[nH]c(-c3ccc(OCC(=O)Nc4ccc(F)cc4)cc3)nc2n(CCC)c1=O` [Compound 30, 8-[4-[((4-Fluoro)phenylcarbamoylmethyl)oxy]phenyl]-1,3-di-(n-propyl)xanthine] the Ki (rat A1 receptors (rA1); [4]) was 2.72 ± 0.51 nM, the Ki (rat A2A receptors (rA2A); [5]) was 988 ± 518 nM and the “selectivity for human A2B versus rat A1 receptors” value [1] was 1 fold. It also gave a Ki ([1]; Table 2, read-out: hA2B Ki or IC50) of 2.22 ± 0.19 nM, a Ki (human A3 receptors (hA3); [7]) of 391 ± 147 nM and a melting point of 298 °C. The Ki [2, 8] was 17.9 ± 4.5 nM and the Ki [3, 9] was 16.6 ± 3.6 nM.

For `CCCn1c(=O)c2[nH]c(-c3ccc(/C=C/C(=O)Nc4ccccc4C(C)=O)cc3)nc2n(CCC)c1=O` [Compound 35, 8-[4(2-(2-Acetylphenyl)carbamoyl-trans-vinyl)phenyl]-1,3-di-(n-propyl)xanthine], the Ki (rat A1 receptors (rA1); Table 3, read-out: rA1 Ki or IC50) was 7.67 ± 2.2 nM, the Ki (rat A2A receptors (rA2A); Table 3, read-out: rA2A Ki or IC50) was 143 ± 50 nM and the Ki ([1]; Table 3, read-out: hA2B Ki or IC50) was 3.65 ± 0.98 nM. It also gave a Ki (human A3 receptors (hA3); Table 3, read-out: hA3 Ki or IC50) of 121 ± 138 nM and a melting point of 281 to 283 °C.

For `CCCn1c(=O)c2[nH]c(-c3ccc(OCC(=O)NNC(C)=O)cc3)nc2n(CCC)c1=O` [Compound 41, 8-[4-[(Carboxymethyl)oxy]phenyl]-1,3-di-(n-propyl)xanthine N-Acetylhydrazide], the Ki (rat A1 receptors (rA1); Table 4, read-out: rA1 Ki) was 6.51 ± 1.24 nM, the Ki (rat A2A receptors (rA2A); Table 4, read-out: rA2A Ki) was 227 ± 64 nM and the rA1/hA2B ([1]; Table 4) was 0.10. For the same compound, the Ki [1, 10] was 33.8 ± 13.7 nM, the Ki [1, 11] was 65.4 ± 6.5 nM and the Ki (human A3 receptors (hA3); [12]) was 30.9 ± 8.2 nM. The Ki [2, 13] was 125 ± 14 nM and the Ki [3, 14] was 186 ± 9 nM.

With `CCCn1c(=O)[nH]c(=O)c2[nH]c(-c3ccc(OCC(=O)NN4C(=O)C(C)=C(C)C4=O)cc3)nc21` [Compound 48] the Ki (rat A1 receptors (rA1); Table 4, read-out: rA1 Ki) was 3590 ± 920 nM, the “rA2A % displacement of specific binding” value (rat A2A receptors (rA2A); Table 4, at 100,000 nM) was 36 ± 4% and the rA1/hA2B ([1]; Table 4) was 2.0. It also gave a Ki [1, 10] of 1900 nM, a Ki [1, 11] of 1800 nM and a Ki (human A3 receptors (hA3); [12]) of 14200 nM. The Ki [2, 13] was 8080 nM and the Ki [3, 14] was 5480 nM.

With `CCCn1c(=O)c2[nH]c(-c3ccc(OCC(=O)NN4C(=O)c5ccccc5C4=O)cc3)nc2n(CCC)c1=O` [Compound 57, 8-[4-[(Carboxymethyl)oxy]phenyl]-1,3-di-(n-propyl)xanthine N,N-Phthaloylhydrazide] the Ki (rat A1 receptors (rA1); Table 4, read-out: rA1 Ki) was 26.3 ± 2.3 nM, the Ki (rat A2A receptors (rA2A); Table 4, read-out: rA2A Ki) was 392 ± 117 nM and the rA1/hA2B ([1]; Table 4) was 0.41. For the same compound, the Ki [1, 10] was 46.4 nM, the Ki [1, 11] was 64.4 ± 0.8 nM and the Ki (human A3 receptors (hA3); [12]) was 147 ± 21 nM. For the same compound, the Ki [2, 13] was 210 nM and the Ki [3, 14] was 359 nM.
